Laboratory results reported in ChEMBL document CHEMBL1131882, “Unsymmetrical cyclic ureas as HIV-1 protease inhibitors: novel biaryl indazoles as P2/P2' substituents” (Bioorg Med Chem Lett, 1999).

What was measured:
[1] = test system: Human immunodeficiency virus 1; test: Inhibitory activity against Ritonavir resistant virus mutant strain; type: functional
[2] = biological target: Human immunodeficiency virus type 1 protease (Human immunodeficiency virus 1) (UniProt Q72874); test: Inhibitory activity against HIV -1 Protease in whole cell assay
[3] = biological target: Human immunodeficiency virus type 1 protease (Human immunodeficiency virus 1, UniProt Q72874); test: Binding affinity for HIV -1 Protease

SMILES	IC90 [1] [nM]	IC90 [2] [nM]	Ki [3] [nM]
Nc1cccc(CN2C(=O)N(Cc3ccc4[nH]ncc4c3)[C@H](Cc3ccccc3)[C@H](O)[C@@H](O)[C@H]2Cc2ccccc2)c1	825	11	–
Nc1cccc(CN2C(=O)N(Cc3ccc4[nH]nc(-c5ccc(F)cc5)c4c3)[C@H](Cc3ccccc3)[C@H](O)[C@@H](O)[C@H]2Cc2ccccc2)c1	> 5000	39	0.3
Nc1cccc(CN2C(=O)N(Cc3ccc4[nH]nc(-c5cc[nH]n5)c4c3)[C@H](Cc3ccccc3)[C@H](O)[C@@H](O)[C@H]2Cc2ccccc2)c1	525	108	0.058
Nc1cccc(CN2C(=O)N(Cc3ccc4[nH]nc(-c5ccc(C(F)(F)F)cc5)c4c3)[C@H](Cc3ccccc3)[C@H](O)[C@@H](O)[C@H]2Cc2ccccc2)c1	–	255	0.25
COc1cccc(-c2n[nH]c3ccc(CN4C(=O)N(Cc5cccc(N)c5)[C@H](Cc5ccccc5)[C@H](O)[C@@H](O)[C@H]4Cc4ccccc4)cc23)c1	–	–	0.24
COc1ccc(-c2[nH]nc3ccc(CN4C(=O)N(Cc5cccc(N)c5)[C@H](Cc5ccccc5)[C@H](O)[C@@H](O)[C@H]4Cc4ccccc4)cc23)cc1	4190	14	0.26
Nc1cccc(CN2C(=O)N(Cc3ccc4[nH]nc(-c5cccc(N)c5)c4c3)[C@H](Cc3ccccc3)[C@H](O)[C@@H](O)[C@H]2Cc2ccccc2)c1	1300	30	0.09
Nc1cccc(CN2C(=O)N(Cc3ccc4[nH]nc(-c5ccsc5)c4c3)[C@H](Cc3ccccc3)[C@H](O)[C@@H](O)[C@H]2Cc2ccccc2)c1	> 5000	32	0.13
COc1cccc(-c2[nH]nc3ccc(CN4C(=O)N(Cc5cccc(N)c5)[C@H](Cc5ccccc5)[C@H](O)[C@@H](O)[C@H]4Cc4ccccc4)cc23)c1	3140	33	–
Nc1cccc(CN2C(=O)N(Cc3ccc4[nH]nc(-c5cccc(C(F)(F)F)c5)c4c3)[C@H](Cc3ccccc3)[C@H](O)[C@@H](O)[C@H]2Cc2ccccc2)c1	–	39	0.61
CC(C)c1nc(CN(C)C(=O)N[C@H](C(=O)N[C@@H](Cc2ccccc2)C[C@H](O)[C@H](Cc2ccccc2)NC(=O)OCc2cncs2)C(C)C)cs1 [RITONAVIR]	4500	–	–
Nc1cccc(CN2C(=O)N(Cc3ccc4[nH]nc(-c5cccs5)c4c3)[C@H](Cc3ccccc3)[C@H](O)[C@@H](O)[C@H]2Cc2ccccc2)c1	> 5000	31	0.18
